Here are results for nine molecules from patent US12559499B2, “Uses of compounds having anti-HSV-1 activity” (Arizona Board of Regents on Behalf of the University of …, priority 2019, dated 2026).

What is called ΔTm is the change in melting temperature against a reference sample.

Where two headings read alike, the source gives them in different places. A value given as a limit tells only on which side of the number the result lay.

One data set relates to wild-type HSV-1 strain F. In words: Anti-HSV-1 plaque reduction assay (PRA) on supernatants of infected U2OS cells. It is filed as cell-based. To be noted: for IC50: MOI 1, supernatants at 24 h.p.i., plaque reduction assay, read-out: IC50 (concentration able to perform 50% inhibition of HSV-1 production). As to the method: (§1) Quindoline-derived compounds were first screened for their anti-herpetic activity. Increasing concentrations of compounds (from 25 to 400 nM) were added to U2OS cells infected with wild-type HSV-1 strain F at a MOI of 1. Supernatants were collected at 24 hours post infection (h.p.i.) and the reduction of viral particles production was determined by plaque reduction assay (PRA) (see, Artusi S., et al., Antiviral Res. 2015; 118:123-31; Callegaro S., et al., Sci. Rep. 2017; 7: 2341). Antiviral activities were determined as the concentration of compounds able to perform 50% inhibition of HSV-1 production (IC50). Cytotoxicity effects were evaluated in parallel by MTT assay and reported as the concentration of compounds able to kill 50% of the cells (CC50). The selectivity index (SI) was calculated as the ratio of CC50 to IC50.
(In general: In a plaque reduction assay, fewer plaques than in the control indicate reduced infectivity or spread.)

The test system of data set [1] is U2OS (Human osteosarcoma cell line). Description: Cytotoxicity by MTT assay. It counts as cell-based. To be noted: U2OS cells, read-out: CC50 (concentration able to kill 50% of the cells). As to the method:
as §1, with “Increasing concentrations of compounds (from 25 to 400 nM) were added to U2OS cells infected with wild-type HSV-1 strain F at a MOI of 1.” left out
(In general: Tetrazolium assays rely on reduction of a dye to a coloured formazan, in cell work by metabolically active cells.)

A short description of data set [2]: Cytotoxicity by MTT assay. It is filed as cell-based, Human. To be noted: human, U2OS cells (osteosarcoma cell line), read-out: CC50 (concentration able to kill 50% of the cells). The procedure:
as §1, with “Increasing concentrations of compounds (from 25 to 400 nM) were added to U2OS cells infected with wild-type HSV-1 strain F at a MOI of 1.” left out

The test system of the next data set is HSV-1. Description: Time of addition (TOA) assay in HSV-1-infected U2OS cells. The settings on record: non-toxic concentration, added every 2 hours up to 10 h.p.i., supernatants at 30 h.p.i. titrated by PRA. It counts as cell-based. The procedure:
To assess the main and temporally last viral step targeted by the most promising compound, GSA-0932, a time of addition (TOA) assay was performed (see, FIG. 2) (see, Artusi S., et al., Antiviral Res. 2015; 118:123-31; Callegaro S., et al., Sci. Rep. 2017; 7: 2341; Daelemans D., et al., Nat. Protoc. 2011; 6(6):925-33). This experiment permits determination of how long the addition of a compound can be postponed before it loses its antiviral activity. Since the HSV-1 replication cycle proceeds in a well-established chronological order, it is possible to investigate the last viral process targeted by a compound comparing its action to that of a reference drug in the time frame of replication events. The well characterized anti-HSV drug Acyclovir (ACV) was considered as reference (see, Artusi S., et al., Antiviral Res. 2015; 118:123-31; Callegaro S., et al., Sci. Rep. 2017; 7: 2341). HSV-1-infected U2OS cells were treated with a non-toxic concentration of GSA-0932 at different times post-infection (corresponding to different viral cycle steps): every 2 hours up to 10 h.p.i. Supernatants were collected at 30 h.p.i. and then titrated by PRA.

The test system of data set [3] is HSV-1 un3 G-quadruplex folding sequence. Description: Circular dichroism (CD) melting of G-quadruplex, un3. It counts as binding. The procedure: (§2) Circular dichroism (CD) was conducted to evaluate the binding and stabilizing activity of GSA-0932 to HSV-1 G-quadruplex structures (G4s). Three sequences were considered: two sequences forming a four-stacked-G-quartet structure (un2 and gp054a) and one forming a three-G-quartet G4 (un3) (see, Artusi S., et al., Antiviral Res. 2015; 118:123-31). HSV-1 G4s were analyzed at a final concentration of 4 μM in the presence of the physiological K^+ concentration (100 mM) or in the presence of lower K^+ concentration (2.5 mM) in order to better appreciate the effect of the compound in the case of extremely stable G4 structures (e.g. un2 sequence). Oligonucleotides were also analyzed in the absence or presence of 4-folds excess of GSA-0932.
On the technique in general: Circular dichroism is widely used to follow secondary structure.

Data set [4] deals with HSV-1 un2 G-quadruplex folding sequence. In words: Circular dichroism (CD) melting of G-quadruplex, un2. To be noted: un2 4 μM + 16 μM GSA-0932, K+ 2.5 mM. It is filed as binding. As to the method:
as §2

For data set [5], the system named is HSV-1 gp054a G-quadruplex folding sequence. In words: Circular dichroism (CD) melting of G-quadruplex, gp054a. The settings on record: for Tm, first value: first of two printed Tm; for Tm, second value: second of two printed Tm. It counts as binding. As to the method:
as §2

For data set [6], the system named is un2, un3 and gp054a G-quadruplex forming templates. In words: Taq polymerase stop assay, G-quadruplex templates. It counts as biochemical, HSV-1. To be noted: 2-8 μM compound; un3 at 50 mM K+, un2 and gp054a at 0.5 mM K+. As to the method: (§3) FIG. 3: Taq polymerase stop assay. A) Image of a typical Taq polymerase stop assay. The un2, un3, gp054a template were amplified by Taq polymerase in the absence (lanes 5-9-13) and in the presence of K^+, combined with increasing amounts (2-8 μM) of GSA-0932 (lanes 7-8, 11-12, 15-16) or same amount of DMSO as that in the ligand (lanes 6-10-14). Un3 was analyzed at 50 mM of K^+, while the other sequences were investigated at 0.5 mM of K^+. A template (non-G4 ctrl) unable to fold into G4 was also used as control (lanes 1-4). P stands for unreacted labeled primer, FL stands for full length product. G4-specific Taq polymerase stop sites are highlighted by vertical bars. Quantification of stop bands corresponding to G4 and of the full length amplification product (FL) is shown.
To confirm the increased stability of the viral G-quadruplexes in the presence of GSA-0932, a Taq polymerase stop assay was next set up (FIG. 3). Extended un2, un3 and gp054a forming sequences were used, containing additional flanking bases at the 3′-end: a primer annealing sequence and a 5-T linker region to separate the annealing sequence from the first G of the G-tract.
(§4) Un3 was analyzed at 50 mM of K^+, while the FIG. 3 other sequences were investigated at 0.5 mM of K^+ due to their higher stability.

Data set [7] deals with control DNA template unable to fold into G-quadruplex. In words: Taq polymerase stop assay, non-G4 control template. The settings on record: non-G4 ctrl template. It is filed as biochemical. The procedure: as §3, §4
Data set [8] deals with un3 G-quadruplex-folded oligonucleotide. Description: Competition ESI-MS binding, un3. Further details: species or system HSV-1. To be noted: competing G4s un3/hTel, oligonucleotides 4 μM, DNA:compound 1:1.5, overnight 4° C. As to the method:
(§5) Competition electrospray ionization mass spectrometry (ESI-MS) experiments were performed in order to check the binding selectivity of GSA-0932 toward different G-quadruplex forming sequences (see, Callegaro S., et al., Sci. Rep. 2017; 7: 2341; Yuan G., et al., Mass Spectrom. Rev. 2011, 30, 1121-114210.1002/mas.20315). The viral un3, un2 and gp054a G4s were analyzed against the selected competitor hTel, the G-quadruplex-forming sequence of the human telomeric repeat, the most abundant cellular G-quadruplex. The oligonucleotides were diluted to final concentration of 4 μM and incubated with the compound at ratio DNA:compound 1:1.5 overnight at 4° C. Samples were analyzed by a Xevo G2-XS QT of mass spectrometer (Waters, Manchester, UK). Binding affinities were calculated for each experiment using the peak intensity for each species measured by MassLynx V4.1.

The test system of data set [9] is un2 G-quadruplex-folded oligonucleotide. In words: Competition ESI-MS binding, un2. The arrangement: species or system HSV-1. To be noted: competing G4s un2/hTel, oligonucleotides 4 μM, DNA:compound 1:1.5, overnight 4° C. The procedure: as §5
The test system of data set [10] is gp054a G-quadruplex-folded oligonucleotide. In words: Competition ESI-MS binding, gp054a. The arrangement: species or system HSV-1. To be noted: competing G4s gp054a/hTel, oligonucleotides 4 μM, DNA:compound 1:1.5, overnight 4° C. The procedure:
as §5

The test system of data set [11] is hTel, the G-quadruplex-forming sequence of the human telomeric repeat. In words: Competition ESI-MS binding, hTel. To be noted: oligonucleotides 4 μM, DNA:compound 1:1.5, overnight 4° C. As to the method: as §5
Setting [12] is: Human alphaherpesvirus 1, HSV-1 strain F.
The mark [13] stands for this setting: un3 4 μM + 16 μM GSA-0932, K+ 2.5 mM.
[14] abbreviates: un3 4 μM + 16 μM GSA-0932, K+ 100 mM.
Where [15] appears, read: gp054a 4 μM + 16 μM GSA-0932, K+ 2.5 mM.
Setting [16] is: gp054a 4 μM + 16 μM GSA-0932, K+ 100 mM.

Consider `Cc1c2ccncc2c(C)c2c1[nH]c1ccc(OCCN(C)C)cc12` [GQC-05, reference compound], for which, in the data set with wild-type HSV-1 strain F (HSV-1 strain F), the IC50 worked out at 0.311 µM. Besides, the CC50 in data set [1] amounted to 1.65 µM.
As to `c1ccc2c3c4c(nc2c1)c1ccccc1n4CCCN3CCCN1CCOCC1` [GSA-0825], the “SI (selectivity index, ratio of CC50 to IC50)” value with wild-type HSV-1 strain F was found to be 91.64. Also, in the data set on wild-type HSV-1 strain F (setting [12]), the IC50 was determined as 0.357 µM. The CC50 in [2] was 32.7 µM.
In the same order, the values of `CN1CCN(CCCN2CCCn3c4ccccc4c4nc5ccccc5c2c43)CC1` [GSA-0903] are below 31.15, above 0.2 µM and 6.23 µM.
In the same order, the values of `Cl.c1ccc2c3c4c(nc2c1)c1ccccc1n4CCCN3CCCN1CCCCCC1` [GSA-0920] are below 9.05, above 0.4 µM and 3.62 µM.
As for `OC1CCN(CCN2CCCn3c4ccccc4c4nc5ccccc5c2c43)CC1` [GSA-0932], the “SI (selectivity index, ratio of CC50 to IC50)” value with wild-type HSV-1 strain F is reported as 112.9. Further, the IC50 with wild-type HSV-1 strain F (setting [12]) came to 0.132 µM. In data set [2], the CC50 turned out to be 14.9 µM. For the same molecule, the “time of addition up to which infection was kept controlled” value in the data set with HSV-1 is on record as “up to 6 h.p.i”. For the same molecule, the Tm is 56.4 ± 1.2 °C in data set [3] (setting [13]), 66.4 °C in data set [3] (setting [14]) and above 90 °C in data set [4]. Moreover, the ΔTm is 18.8 ± 0.8 °C in data set [3] (setting [13]), 1.4 °C in [3] (setting [14]), above 7.5 °C in data set [4] and 15.6 °C in data set [5] (setting [15]). In addition, the results for the “Tm, first value” in [5] (setting [15]) and in data set [5] (setting [16]) were 74.5 °C and 74.7 °C, respectively. Further, the “Tm, second value” in [5] (setting [15]) and in [5] (setting [16]) was above 90 °C throughout. In addition, the “ΔTm, first value” in data set [5] (gp054a 4 μM + 16 μM GSA-0932, K+ 100 mM, first of two printed ΔTm) was 17.4 °C. Besides, the “ΔTm, second value” in [5] (gp054a 4 μM + 16 μM GSA-0932, K+ 100 mM, second of two printed ΔTm) is above 7.5 °C. Further, the “intensity of the G4 stop bands” value in [6] is given as “increased in a concentration dependent manner”. Moreover, the “effect on control DNA template” value in [7] was “no effect”. In data set [8], the “Relative binding affinity, un3” value was found to be 50.3 ± 1.2. Moreover, the “Relative binding affinity, un2” value in [9] turned out to be 38.9 ± 1.7. In addition, in [10], the “Relative binding affinity, gp054a” value came out at 57.3 ± 0.4. The “Relative binding affinity, Cell G4 (hTel)” value came to 11.1 ± 0.4 in [11] (competing G4s un2/hTel) and 13.8 ± 0.2 in data set [11] (competing G4s un3/hTel).
Turning to `c1ccc2c3c4c(nc2c1)c1ccccc1n4CCCN3CCCN1CCCCC1` [GSA-1202], the “SI (selectivity index, ratio of CC50 to IC50)” value with wild-type HSV-1 strain F is on record as 21.31. Further, in the data set on wild-type HSV-1 strain F (setting [12]), the IC50 came out at 0.203 µM. Besides, the CC50 in data set [2] turned out to be 4.32 µM.
As to `CN(C)CCN1CCCn2c3ccccc3c3nc4ccccc4c1c32` [GSA-1502], in the data set with wild-type HSV-1 strain F, the “SI (selectivity index, ratio of CC50 to IC50)” value came to 68.70. Further, the IC50 in the data set on wild-type HSV-1 strain F (setting [12]) was 0.188 µM. The CC50 in data set [2] is 12.9 µM.
As for `CN(C)CCCN1CCCn2c3ccccc3c3nc4ccccc4c1c32` [GSA-1504], the “SI (selectivity index, ratio of CC50 to IC50)” value with wild-type HSV-1 strain F was determined as 20.42. Moreover, the IC50 in the data set on wild-type HSV-1 strain F (setting [12]) turned out to be 0.225 µM. Further, in data set [2], the CC50 was found to be 4.6 µM.
On to `OC1CCC(CCN2CCCn3c4ccccc4c4nc5ccccc5c2c43)CC1` (centres unmarked) [GSA-1512], for which, in the data set on wild-type HSV-1 strain F, the “SI (selectivity index, ratio of CC50 to IC50)” value came to 70.78. For the same molecule, the IC50 with wild-type HSV-1 strain F (setting [12]) was determined as 0.256 µM. Further, the CC50 in data set [2] is 18.1 µM.
